Source: the kinase profiling compilation of Christmann-Franck et al. (2016)

Assays:
Experiment in all cases: radiometric filter-binding kinase assay
PLK1 (human) = PLK1 (human) (UniProt P53350)
MAPKAPK3 (human) = MAPKAPK3 (human) (UniProt Q16644)
[1] = system: RPS6KB1 (human), P23443 [T412E]
MKNK2 (human) = MKNK2 (human) (UniProt Q9HBH9)
MAPK15 (human) = MAPK15 (human) (UniProt Q8TD08)
CHEK2 (human) = CHEK2 (human) (UniProt O96017)
NEK2 (human) = NEK2 (human) (UniProt P51955)
PRKAA1 or PRKAA2 (rat) = conditions: accession and sequence are those of the human protein
MAPK1 (human) = MAPK1 (human) (UniProt P28482)
MAPK14 (human) = MAPK14 (human) (UniProt Q16539)
RPS6KA5 KD1 KD2 (human) = RPS6KA5 KD1 KD2 (human) (UniProt O75582)
SRC (human) = SRC (human) (UniProt P12931)
PAK7 (human) = PAK7 (human) (UniProt Q9P286)
PRKACA (human) = PRKACA (human) (UniProt P17612)
RPS6KA1 KD1 KD2 (human) = RPS6KA1 KD1 KD2 (human) (UniProt Q15418)
[2] = system: AKT2 (human), P31751 [S474D]
MAP2K1 (human) = MAP2K1 (human) (UniProt Q02750)
MAPK3 (human) = MAPK3 (human) (UniProt P27361)
IKBKB (human) = IKBKB (human) (UniProt O14920)
RPS6KA3 KD1 KD2 (human) = RPS6KA3 KD1 KD2 (human) (UniProt P51812)
CSNK1D (human) = CSNK1D (human) (UniProt P48730)
CDK2 CCNA2 (human) = CDK2 CCNA2 (human) (UniProt P20248+P24941)
PIM2 (human) = PIM2 (human) (UniProt Q9P1W9)
CSK (human) = CSK (human) (UniProt P41240)
NEK6 (human) = NEK6 (human) (UniProt Q9HC98)
Chain of NEK6 (human) (Q9HC98 whole entry, looked up): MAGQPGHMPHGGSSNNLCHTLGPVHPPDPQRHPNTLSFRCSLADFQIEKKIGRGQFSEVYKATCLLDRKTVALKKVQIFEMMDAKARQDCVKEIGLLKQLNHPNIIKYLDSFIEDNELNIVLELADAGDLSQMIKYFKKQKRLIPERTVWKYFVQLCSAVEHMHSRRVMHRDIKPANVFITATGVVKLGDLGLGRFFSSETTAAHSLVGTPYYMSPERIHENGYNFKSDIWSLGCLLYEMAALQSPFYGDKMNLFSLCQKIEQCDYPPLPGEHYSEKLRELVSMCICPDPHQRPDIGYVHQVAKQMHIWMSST

Chain of RPS6KA1 KD1 KD2 (human) (Q15418 whole entry, looked up): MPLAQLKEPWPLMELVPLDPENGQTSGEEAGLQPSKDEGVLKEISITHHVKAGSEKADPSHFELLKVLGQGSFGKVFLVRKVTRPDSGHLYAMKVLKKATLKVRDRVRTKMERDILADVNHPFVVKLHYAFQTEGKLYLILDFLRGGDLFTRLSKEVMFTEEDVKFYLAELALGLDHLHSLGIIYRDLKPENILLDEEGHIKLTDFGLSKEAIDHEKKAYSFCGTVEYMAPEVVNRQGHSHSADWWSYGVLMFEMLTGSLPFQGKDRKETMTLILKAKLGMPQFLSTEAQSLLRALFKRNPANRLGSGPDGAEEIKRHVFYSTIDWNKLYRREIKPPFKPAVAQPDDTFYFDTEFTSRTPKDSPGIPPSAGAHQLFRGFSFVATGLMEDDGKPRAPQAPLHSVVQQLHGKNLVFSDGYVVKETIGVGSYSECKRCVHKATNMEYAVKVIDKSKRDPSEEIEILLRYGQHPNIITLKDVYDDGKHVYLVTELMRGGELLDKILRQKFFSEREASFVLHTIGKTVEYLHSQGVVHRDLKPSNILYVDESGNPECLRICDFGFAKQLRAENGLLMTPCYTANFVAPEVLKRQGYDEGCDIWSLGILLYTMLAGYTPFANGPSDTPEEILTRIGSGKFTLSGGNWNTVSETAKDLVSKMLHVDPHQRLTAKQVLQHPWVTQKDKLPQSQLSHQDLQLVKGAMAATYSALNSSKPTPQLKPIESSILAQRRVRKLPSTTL
Chain of MAPKAPK3 (human) (Q16644 whole entry, looked up): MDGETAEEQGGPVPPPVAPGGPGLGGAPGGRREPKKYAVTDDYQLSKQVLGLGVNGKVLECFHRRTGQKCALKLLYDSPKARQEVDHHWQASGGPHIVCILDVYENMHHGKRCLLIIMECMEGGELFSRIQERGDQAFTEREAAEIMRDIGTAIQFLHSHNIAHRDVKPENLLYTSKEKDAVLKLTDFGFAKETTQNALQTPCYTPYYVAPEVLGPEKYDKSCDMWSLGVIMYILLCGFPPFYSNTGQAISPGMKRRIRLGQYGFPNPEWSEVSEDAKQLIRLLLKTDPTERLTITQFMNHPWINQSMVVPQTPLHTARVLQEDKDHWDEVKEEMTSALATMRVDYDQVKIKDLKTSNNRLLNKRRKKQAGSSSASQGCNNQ
Chain of NEK2 (human) (P51955 whole entry, looked up): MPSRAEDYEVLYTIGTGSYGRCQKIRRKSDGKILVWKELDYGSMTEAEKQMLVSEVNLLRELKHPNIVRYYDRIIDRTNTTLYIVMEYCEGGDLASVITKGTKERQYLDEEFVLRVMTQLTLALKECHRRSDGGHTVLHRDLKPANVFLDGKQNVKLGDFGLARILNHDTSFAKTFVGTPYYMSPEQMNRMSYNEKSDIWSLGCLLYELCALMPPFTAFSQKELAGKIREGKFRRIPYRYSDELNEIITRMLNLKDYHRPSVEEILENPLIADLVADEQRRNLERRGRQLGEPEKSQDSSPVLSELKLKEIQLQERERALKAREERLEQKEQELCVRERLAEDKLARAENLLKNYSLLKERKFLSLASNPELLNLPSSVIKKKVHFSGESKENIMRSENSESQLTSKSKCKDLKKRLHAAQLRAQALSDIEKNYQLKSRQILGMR
Chain of SRC (human) (P12931 whole entry, looked up): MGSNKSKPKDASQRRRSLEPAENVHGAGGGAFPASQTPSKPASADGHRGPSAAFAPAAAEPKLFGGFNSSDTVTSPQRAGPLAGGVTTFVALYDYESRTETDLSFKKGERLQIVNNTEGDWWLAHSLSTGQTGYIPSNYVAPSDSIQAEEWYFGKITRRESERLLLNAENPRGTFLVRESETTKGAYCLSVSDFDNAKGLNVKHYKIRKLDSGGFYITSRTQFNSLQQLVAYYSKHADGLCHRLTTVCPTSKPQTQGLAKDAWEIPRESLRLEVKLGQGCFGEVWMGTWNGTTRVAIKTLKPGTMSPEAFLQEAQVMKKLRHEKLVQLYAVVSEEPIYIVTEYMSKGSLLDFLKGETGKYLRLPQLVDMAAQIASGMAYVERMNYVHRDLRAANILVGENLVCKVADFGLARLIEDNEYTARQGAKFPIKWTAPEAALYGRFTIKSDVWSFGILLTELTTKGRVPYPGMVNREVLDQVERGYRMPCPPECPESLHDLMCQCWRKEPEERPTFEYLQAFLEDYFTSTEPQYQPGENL
Chain of CHEK2 (human) (O96017 whole entry, looked up): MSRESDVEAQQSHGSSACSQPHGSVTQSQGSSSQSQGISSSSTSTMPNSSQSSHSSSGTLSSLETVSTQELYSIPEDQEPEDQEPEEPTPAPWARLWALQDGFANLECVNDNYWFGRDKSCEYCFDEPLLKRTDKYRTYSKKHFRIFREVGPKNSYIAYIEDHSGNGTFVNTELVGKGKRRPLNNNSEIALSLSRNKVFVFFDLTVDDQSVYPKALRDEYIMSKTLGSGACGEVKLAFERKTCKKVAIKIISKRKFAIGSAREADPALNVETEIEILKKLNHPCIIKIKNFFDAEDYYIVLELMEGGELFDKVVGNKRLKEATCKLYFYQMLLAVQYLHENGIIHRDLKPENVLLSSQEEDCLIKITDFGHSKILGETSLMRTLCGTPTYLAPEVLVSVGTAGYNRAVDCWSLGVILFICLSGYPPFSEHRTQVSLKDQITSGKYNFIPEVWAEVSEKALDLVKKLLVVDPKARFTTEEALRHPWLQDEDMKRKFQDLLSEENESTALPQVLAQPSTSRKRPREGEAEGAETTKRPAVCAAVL
Chain of RPS6KA3 KD1 KD2 (human) (P51812 whole entry, looked up): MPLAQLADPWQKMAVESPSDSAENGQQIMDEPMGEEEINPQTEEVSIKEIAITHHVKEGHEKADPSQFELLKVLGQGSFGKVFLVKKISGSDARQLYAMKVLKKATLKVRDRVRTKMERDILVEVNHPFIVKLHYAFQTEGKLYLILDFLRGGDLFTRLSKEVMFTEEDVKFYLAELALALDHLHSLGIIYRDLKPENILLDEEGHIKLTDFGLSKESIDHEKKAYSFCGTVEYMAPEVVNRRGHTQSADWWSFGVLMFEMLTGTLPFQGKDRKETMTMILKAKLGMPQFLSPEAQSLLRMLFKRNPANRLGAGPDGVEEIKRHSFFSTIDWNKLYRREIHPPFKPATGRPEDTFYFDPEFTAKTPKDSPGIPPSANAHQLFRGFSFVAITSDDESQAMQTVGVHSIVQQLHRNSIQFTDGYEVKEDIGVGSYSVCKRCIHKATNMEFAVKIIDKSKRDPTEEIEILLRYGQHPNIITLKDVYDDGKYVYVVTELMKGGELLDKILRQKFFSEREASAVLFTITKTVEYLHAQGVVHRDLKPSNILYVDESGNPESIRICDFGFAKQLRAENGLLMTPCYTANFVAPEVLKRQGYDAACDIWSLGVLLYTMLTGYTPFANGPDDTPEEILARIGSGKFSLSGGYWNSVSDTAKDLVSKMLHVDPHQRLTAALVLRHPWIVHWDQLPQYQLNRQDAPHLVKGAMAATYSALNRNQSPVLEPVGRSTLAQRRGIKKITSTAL
Chain of MAPK3 (human) (P27361 whole entry, looked up): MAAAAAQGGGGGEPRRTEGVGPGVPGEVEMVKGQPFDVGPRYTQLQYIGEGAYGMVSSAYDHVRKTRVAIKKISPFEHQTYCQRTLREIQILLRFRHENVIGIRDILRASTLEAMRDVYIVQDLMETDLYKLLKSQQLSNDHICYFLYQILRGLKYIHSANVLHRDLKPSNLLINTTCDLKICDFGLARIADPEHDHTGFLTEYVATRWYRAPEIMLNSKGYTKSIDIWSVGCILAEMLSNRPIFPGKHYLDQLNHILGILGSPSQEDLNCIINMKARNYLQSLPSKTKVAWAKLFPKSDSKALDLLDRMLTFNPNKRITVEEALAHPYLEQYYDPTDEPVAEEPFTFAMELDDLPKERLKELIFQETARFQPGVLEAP
Chain of MAPK1 (human) (P28482 whole entry, looked up): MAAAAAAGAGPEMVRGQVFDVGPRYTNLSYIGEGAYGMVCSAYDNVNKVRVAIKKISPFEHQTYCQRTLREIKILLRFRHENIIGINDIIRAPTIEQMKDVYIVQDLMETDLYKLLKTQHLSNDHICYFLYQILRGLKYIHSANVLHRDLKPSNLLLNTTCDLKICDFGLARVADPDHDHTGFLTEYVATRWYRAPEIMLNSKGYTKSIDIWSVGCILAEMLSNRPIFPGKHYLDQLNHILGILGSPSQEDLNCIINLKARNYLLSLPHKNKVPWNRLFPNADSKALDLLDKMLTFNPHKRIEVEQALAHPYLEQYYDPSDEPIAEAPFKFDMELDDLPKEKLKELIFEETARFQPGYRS
Chain of MAPK15 (human) (Q8TD08 whole entry, looked up): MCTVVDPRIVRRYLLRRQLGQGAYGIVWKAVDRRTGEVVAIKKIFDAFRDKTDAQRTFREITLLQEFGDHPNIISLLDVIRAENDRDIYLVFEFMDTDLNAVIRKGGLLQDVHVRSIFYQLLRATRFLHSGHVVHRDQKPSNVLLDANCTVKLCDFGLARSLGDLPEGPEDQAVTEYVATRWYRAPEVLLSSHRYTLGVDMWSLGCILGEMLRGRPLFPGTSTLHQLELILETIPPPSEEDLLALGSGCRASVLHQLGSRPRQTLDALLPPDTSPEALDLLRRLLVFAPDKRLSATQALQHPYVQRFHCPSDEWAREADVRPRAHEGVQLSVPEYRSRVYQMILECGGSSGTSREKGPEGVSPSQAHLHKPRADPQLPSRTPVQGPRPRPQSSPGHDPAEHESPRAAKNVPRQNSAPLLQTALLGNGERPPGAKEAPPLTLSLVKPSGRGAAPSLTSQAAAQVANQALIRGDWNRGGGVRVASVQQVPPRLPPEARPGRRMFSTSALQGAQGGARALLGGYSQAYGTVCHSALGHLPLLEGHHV

COc1ccc2c(c1)c1c3c(c4c5ccccc5n(C)c4c1n2CC(O)CN(C)C)C(=O)NC3=O (stereo not given)
residual activity (PLK1 (human); compound 0.1 µM): 99% | residual activity (PLK1 (human); compound 1.0 µM): 98% | residual activity (PLK1 (human); compound 10.0 µM): 79% | residual activity (MAPKAPK3 (human); compound 0.1 µM): 131% | residual activity (MAPKAPK3 (human); compound 1.0 µM): 92% | residual activity (MAPKAPK3 (human); compound 10.0 µM): 79% | residual activity ([1]; compound 0.1 µM): 11% | residual activity ([1]; compound 1.0 µM): 2% | residual activity ([1]; compound 10.0 µM): 1% | residual activity (MKNK2 (human); compound 0.1 µM): 90% | residual activity (MKNK2 (human); compound 1.0 µM): 88% | residual activity (MKNK2 (human); compound 10.0 µM): 70% | residual activity (MAPK15 (human); compound 0.1 µM): 78% | residual activity (MAPK15 (human); compound 1.0 µM): 53% | residual activity (MAPK15 (human); compound 10.0 µM): 54% | residual activity (CHEK2 (human); compound 0.1 µM): 57% | residual activity (CHEK2 (human); compound 1.0 µM): 27% | residual activity (CHEK2 (human); compound 10.0 µM): 10% | residual activity (NEK2 (human); compound 0.1 µM): 95% | residual activity (NEK2 (human); compound 1.0 µM): 80% | residual activity (NEK2 (human); compound 10.0 µM): 59% | residual activity (PRKAA1 or PRKAA2 (rat); compound 0.1 µM): 64% | residual activity (PRKAA1 or PRKAA2 (rat); compound 1.0 µM): 19% | residual activity (PRKAA1 or PRKAA2 (rat); compound 10.0 µM): 24% | residual activity (MAPK1 (human); compound 0.1 µM): 114% | residual activity (MAPK1 (human); compound 1.0 µM): 110% | residual activity (MAPK1 (human); compound 10.0 µM): 106% | residual activity (MAPK14 (human); compound 0.1 µM): 107% | residual activity (MAPK14 (human); compound 1.0 µM): 106% | residual activity (MAPK14 (human); compound 10.0 µM): 86% | residual activity (RPS6KA5 KD1 KD2 (human); compound 0.1 µM): 11% | residual activity (RPS6KA5 KD1 KD2 (human); compound 1.0 µM): 3% | residual activity (RPS6KA5 KD1 KD2 (human); compound 10.0 µM): 3% | residual activity (SRC (human); compound 0.1 µM): 104% | residual activity (SRC (human); compound 1.0 µM): 95% | residual activity (SRC (human); compound 10.0 µM): 63% | residual activity (PAK7 (human); compound 0.1 µM): 108% | residual activity (PAK7 (human); compound 1.0 µM): 81% | residual activity (PAK7 (human); compound 10.0 µM): 85% | residual activity (PRKACA (human); compound 0.1 µM): 42% | residual activity (PRKACA (human); compound 1.0 µM): 7% | residual activity (PRKACA (human); compound 10.0 µM): 2% | residual activity (RPS6KA1 KD1 KD2 (human); compound 0.1 µM): 10% | residual activity (RPS6KA1 KD1 KD2 (human); compound 1.0 µM): 5% | residual activity (RPS6KA1 KD1 KD2 (human); compound 10.0 µM): 5% | residual activity ([2]; compound 0.1 µM): 80% | residual activity ([2]; compound 1.0 µM): 44% | residual activity ([2]; compound 10.0 µM): 13% | residual activity (MAP2K1 (human); compound 0.1 µM): 82% | residual activity (MAP2K1 (human); compound 1.0 µM): 27% | residual activity (MAP2K1 (human); compound 10.0 µM): 16% | residual activity (MAPK3 (human); compound 0.1 µM): 94% | residual activity (MAPK3 (human); compound 1.0 µM): 102% | residual activity (MAPK3 (human); compound 10.0 µM): 96% | residual activity (IKBKB (human); compound 0.1 µM): 104% | residual activity (IKBKB (human); compound 1.0 µM): 94% | residual activity (IKBKB (human); compound 10.0 µM): 80% | residual activity (RPS6KA3 KD1 KD2 (human); compound 0.1 µM): 3% | residual activity (RPS6KA3 KD1 KD2 (human); compound 1.0 µM): 0% | residual activity (RPS6KA3 KD1 KD2 (human); compound 10.0 µM): 0% | residual activity (CSNK1D (human); compound 0.1 µM): 103% | residual activity (CSNK1D (human); compound 1.0 µM): 83% | residual activity (CSNK1D (human); compound 10.0 µM): 68% | residual activity (CDK2 CCNA2 (human); compound 0.1 µM): 95% | residual activity (CDK2 CCNA2 (human); compound 1.0 µM): 90% | residual activity (CDK2 CCNA2 (human); compound 10.0 µM): 81% | residual activity (PIM2 (human); compound 0.1 µM): 38% | residual activity (PIM2 (human); compound 1.0 µM): 6% | residual activity (PIM2 (human); compound 10.0 µM): 1% | residual activity (CSK (human); compound 0.1 µM): 84% | residual activity (CSK (human); compound 1.0 µM): 78% | residual activity (CSK (human); compound 10.0 µM): 58% | residual activity (NEK6 (human); compound 0.1 µM): 99% | residual activity (NEK6 (human); compound 1.0 µM): 87% | residual activity (NEK6 (human); compound 10.0 µM): 84%

Cn1nc(Nc2ccc(F)cc2)c2c(N)ncnc21
residual activity (PLK1 (human); compound 1.0 µM): 92% | residual activity (PLK1 (human); compound 10.0 µM): 94% | residual activity (MAPKAPK3 (human); compound 1.0 µM): 137% | residual activity (MAPKAPK3 (human); compound 10.0 µM): 132% | residual activity ([1]; compound 1.0 µM): 114% | residual activity ([1]; compound 10.0 µM): 114% | residual activity (MKNK2 (human); compound 1.0 µM): 104% | residual activity (MKNK2 (human); compound 10.0 µM): 103% | residual activity (MAPK15 (human); compound 1.0 µM): 76% | residual activity (MAPK15 (human); compound 10.0 µM): 70% | residual activity (CHEK2 (human); compound 1.0 µM): 103% | residual activity (CHEK2 (human); compound 10.0 µM): 96% | residual activity (NEK2 (human); compound 1.0 µM): 102% | residual activity (NEK2 (human); compound 10.0 µM): 100% | residual activity (PRKAA1 or PRKAA2 (rat); compound 1.0 µM): 105% | residual activity (PRKAA1 or PRKAA2 (rat); compound 10.0 µM): 107% | residual activity (MAPK1 (human); compound 1.0 µM): 107% | residual activity (MAPK1 (human); compound 10.0 µM): 110% | residual activity (MAPK14 (human); compound 1.0 µM): 93% | residual activity (MAPK14 (human); compound 10.0 µM): 80% | residual activity (RPS6KA5 KD1 KD2 (human); compound 1.0 µM): 97% | residual activity (RPS6KA5 KD1 KD2 (human); compound 10.0 µM): 84% | residual activity (SRC (human); compound 1.0 µM): 96% | residual activity (SRC (human); compound 10.0 µM): 63% | residual activity (PAK7 (human); compound 1.0 µM): 109% | residual activity (PAK7 (human); compound 10.0 µM): 125% | residual activity (PRKACA (human); compound 1.0 µM): 106% | residual activity (PRKACA (human); compound 10.0 µM): 107% | residual activity (RPS6KA1 KD1 KD2 (human); compound 1.0 µM): 121% | residual activity (RPS6KA1 KD1 KD2 (human); compound 10.0 µM): 102% | residual activity ([2]; compound 1.0 µM): 103% | residual activity ([2]; compound 10.0 µM): 103% | residual activity (MAP2K1 (human); compound 1.0 µM): 108% | residual activity (MAP2K1 (human); compound 10.0 µM): 104% | residual activity (MAPK3 (human); compound 1.0 µM): 124% | residual activity (MAPK3 (human); compound 10.0 µM): 111% | residual activity (IKBKB (human); compound 1.0 µM): 98% | residual activity (IKBKB (human); compound 10.0 µM): 96% | residual activity (RPS6KA3 KD1 KD2 (human); compound 1.0 µM): 110% | residual activity (RPS6KA3 KD1 KD2 (human); compound 10.0 µM): 107% | residual activity (CSNK1D (human); compound 1.0 µM): 97% | residual activity (CSNK1D (human); compound 10.0 µM): 62% | residual activity (CDK2 CCNA2 (human); compound 1.0 µM): 98% | residual activity (CDK2 CCNA2 (human); compound 10.0 µM): 96% | residual activity (PIM2 (human); compound 1.0 µM): 100% | residual activity (PIM2 (human); compound 10.0 µM): 109% | residual activity (CSK (human); compound 1.0 µM): 88% | residual activity (CSK (human); compound 10.0 µM): 76% | residual activity (NEK6 (human); compound 1.0 µM): 95% | residual activity (NEK6 (human); compound 10.0 µM): 95%
